Assays:
Settings in all cases: 48 h
P12-Ichikawa [1] = assay: cell viability relative to DMSO control; higher = less cytotoxic
Procedure, shortened: (§1)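 Library compounds in DMSO were pin-dosed into 1536-well plates (5 μl) holding NOMO1 or SEM (500 cells/well) or P12-Ichikawa (1000 cells/well) leukemia cells, across an 11-point threefold series of 47 μM to 0.79 nM. Each cell line had been adapted for at least four passages in each medium. CellTiter-Glo One luminescence was read after 48 h at 37°C. Viability is the per-plate percentage relative to DMSO wells, with cell-free wells as background.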

SEM cells [2] = assay: as above
Procedure, shortened: as §1

NOMO1 [3] = assay: as above
Procedure, shortened: as §1

P12-Ichikawa [4] = assay: AUC of viability dose-response curve (% viability x log10 dose units); higher = less sensitive
Procedure, shortened: (§2)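 Leukemia cells adapted to each medium were seeded in 1536-well plates (500 or 1000 cells/well) and given library compounds in DMSO for 48 h at 37°C. The 11 threefold doses spanned 47 μM to 0.79 nM, and CellTiter-Glo One luminescence was normalised per plate to DMSO and cell-free wells before four-parameter log-logistic fitting on log10 dose. Area under the curve was integrated with the trapezoidal rule, scaling curves above full viability and removing curves that failed quality control.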

NOMO1 [5] = assay: as above
Procedure, shortened: as §2

SEM cells [6] = assay: as above
Procedure, shortened: as §2

COc1ncnc(N[S+](=O)([O-])c2ccc(N)cc2)c1OC
cell viability [%]
Settings	NOMO1 [3]	P12-Ichikawa [1]	SEM cells [2]
HPLM + 10% dialyzed FBS, 0.000781 µM	111	113	33.3
HPLM + 10% dialyzed FBS, 0.00234 µM	111	117	74
HPLM + 10% dialyzed FBS, 0.00702 µM	104	116	64.9
HPLM + 10% dialyzed FBS, 0.0211 µM	122	112	77.8
HPLM + 10% dialyzed FBS, 0.0632 µM	102	109	96.9
HPLM + 10% dialyzed FBS, 0.19 µM	123	92.6	75.1
HPLM + 10% dialyzed FBS, 0.569 µM	97.6	79.8	77.2
HPLM + 10% dialyzed FBS, 1.71 µM	61.4	72	46.8
HPLM + 10% dialyzed FBS, 5.12 µM	31.5	25.8	11.4
HPLM + 10% dialyzed FBS, 15.4 µM	8.89	22.2	5.63
HPLM + 10% dialyzed FBS, 46.1 µM	7.76	27	6.09
RPMI 5 mM glucose + 10% FBS, 0.000781 µM	97.7	115	46
RPMI 5 mM glucose + 10% FBS, 0.00234 µM	107	111	102
RPMI 5 mM glucose + 10% FBS, 0.00702 µM	107	116	82.5
RPMI 5 mM glucose + 10% FBS, 0.0211 µM	98	124	96.4
RPMI 5 mM glucose + 10% FBS, 0.0632 µM	101	101	101
RPMI 5 mM glucose + 10% FBS, 0.19 µM	112	85.3	88.3
RPMI 5 mM glucose + 10% FBS, 0.569 µM	103	73.3	59.3
RPMI 5 mM glucose + 10% FBS, 1.71 µM	106	59.3	44
RPMI 5 mM glucose + 10% FBS, 5.12 µM	51.3	43.8	6.03
RPMI 5 mM glucose + 10% FBS, 15.4 µM	24	12.9	4.36
RPMI 5 mM glucose + 10% FBS, 46.1 µM	13.5	11.6	5.06
RPMI 5 mM glucose + 10% dialyzed FBS, 0.000781 µM	103	108	39.2
RPMI 5 mM glucose + 10% dialyzed FBS, 0.00234 µM	115	116	96.9
RPMI 5 mM glucose + 10% dialyzed FBS, 0.00702 µM	97.2	113	79.2
RPMI 5 mM glucose + 10% dialyzed FBS, 0.0211 µM	110	103	114
RPMI 5 mM glucose + 10% dialyzed FBS, 0.0632 µM	117	97.1	118
RPMI 5 mM glucose + 10% dialyzed FBS, 0.19 µM	119	86.3	92.6
RPMI 5 mM glucose + 10% dialyzed FBS, 0.569 µM	123	66.6	86.1
RPMI 5 mM glucose + 10% dialyzed FBS, 1.71 µM	108	53.8	50.4
RPMI 5 mM glucose + 10% dialyzed FBS, 5.12 µM	70.9	39.4	17.9
RPMI 5 mM glucose + 10% dialyzed FBS, 15.4 µM	36.7	18.7	8.47
RPMI 5 mM glucose + 10% dialyzed FBS, 46.1 µM	19	14.8	8.64

AUC of viability dose-response curve
Settings	HPLM + 10% dialyzed FBS	RPMI 5 mM glucose + 10% FBS	RPMI 5 mM glucose + 10% dialyzed FBS
NOMO1 [5]	348	394	404
P12-Ichikawa [4]	341	320	316

CC(=O)OCCN1C(=O)c2c(C)nc3ccc([S+](=O)([O-])N4CCOCC4)cc3c2C1=O
SEM cells [2], RPMI 5 mM glucose + 10% dialyzed FBS
Settings	cell viability [%]
0.000781 µM	112
0.00234 µM	114
0.00702 µM	138
0.0211 µM	131
0.0632 µM	129
0.19 µM	148
0.569 µM	156
1.71 µM	140
5.12 µM	152
15.4 µM	120
46.1 µM	142

AUC of viability dose-response curve
Settings	HPLM + 10% dialyzed FBS	RPMI 5 mM glucose + 10% FBS	RPMI 5 mM glucose + 10% dialyzed FBS
NOMO1 [5]	337	299	329
SEM cells [6]	471	445	457

CCC(=C/[C@H](C)C/C=C/C(C)=C/[C@@H](C)C(=O)[C@@H](C)[C@H](O)[C@@H](C)C/C(C)=C/C(=O)O)/C=C/[C@@H]1OC(=O)C=C[C@@H]1C
cell viability [%]
Settings	NOMO1 [3]	P12-Ichikawa [1]	SEM cells [2]
HPLM + 10% dialyzed FBS, 0.000781 µM	118	110	59.9
HPLM + 10% dialyzed FBS, 0.00234 µM	115	114	88.8
HPLM + 10% dialyzed FBS, 0.00702 µM	109	116	77.7
HPLM + 10% dialyzed FBS, 0.0211 µM	107	117	79.9
HPLM + 10% dialyzed FBS, 0.0632 µM	118	118	89.2
HPLM + 10% dialyzed FBS, 0.19 µM	123	115	75.7
HPLM + 10% dialyzed FBS, 0.569 µM	125	129	62.4
HPLM + 10% dialyzed FBS, 1.71 µM	83.8	109	20.6
HPLM + 10% dialyzed FBS, 5.12 µM	4.07	6.55	5.63
HPLM + 10% dialyzed FBS, 15.4 µM	2.4	4.69	5.09
HPLM + 10% dialyzed FBS, 46.1 µM	13.2	7.83	7.74
RPMI 5 mM glucose + 10% FBS, 0.000781 µM	104	106	83
RPMI 5 mM glucose + 10% FBS, 0.00234 µM	101	119	96.4
RPMI 5 mM glucose + 10% FBS, 0.00702 µM	110	111	93.2
RPMI 5 mM glucose + 10% FBS, 0.0211 µM	99.2	127	95.3
RPMI 5 mM glucose + 10% FBS, 0.0632 µM	114	121	106
RPMI 5 mM glucose + 10% FBS, 0.19 µM	114	118	70.4
RPMI 5 mM glucose + 10% FBS, 0.569 µM	109	114	45.5
RPMI 5 mM glucose + 10% FBS, 1.71 µM	110	96.1	13
RPMI 5 mM glucose + 10% FBS, 5.12 µM	3.02	5.34	6.23
RPMI 5 mM glucose + 10% FBS, 15.4 µM	1.72	3.16	5.5
RPMI 5 mM glucose + 10% FBS, 46.1 µM	14.7	8.25	10.9
RPMI 5 mM glucose + 10% dialyzed FBS, 0.000781 µM	99.7	99.9	84
RPMI 5 mM glucose + 10% dialyzed FBS, 0.00234 µM	108	107	86
RPMI 5 mM glucose + 10% dialyzed FBS, 0.00702 µM	113	109	95.4
RPMI 5 mM glucose + 10% dialyzed FBS, 0.0211 µM	107	115	91.1
RPMI 5 mM glucose + 10% dialyzed FBS, 0.0632 µM	122	107	82.9
RPMI 5 mM glucose + 10% dialyzed FBS, 0.19 µM	120	111	77.7
RPMI 5 mM glucose + 10% dialyzed FBS, 0.569 µM	120	108	52
RPMI 5 mM glucose + 10% dialyzed FBS, 1.71 µM	90.2	91.1	18.8
RPMI 5 mM glucose + 10% dialyzed FBS, 5.12 µM	3.22	5.62	7.36
RPMI 5 mM glucose + 10% dialyzed FBS, 15.4 µM	2.11	4.96	6.69
RPMI 5 mM glucose + 10% dialyzed FBS, 46.1 µM	14.7	13.8	8.55

AUC of viability dose-response curve
Settings	HPLM + 10% dialyzed FBS	RPMI 5 mM glucose + 10% FBS	RPMI 5 mM glucose + 10% dialyzed FBS
NOMO1 [5]	351	365	355
P12-Ichikawa [4]	361	355	359
